Publication PMC7216583 (Parasites & Vectors, 2020)
Structures can show the parent of a compound that is named as a salt.

How the values were obtained:
[1] = target: δ-opioid receptor; set-up: method as in library vendor description; conditions: agonist; ref library vendor description; cited from earlier work
[2] = system: Toxoplasma gondii RH-2F tachyzoites; experiment: microbe, parasite or virus in culture; conditions: 72 h, read-out: Parasite inhibition (%) mean, preliminary screen, mean
[3] = system: CYP17; set-up: method as in library vendor description; conditions: ref library vendor description; cited from earlier work
[4] = system: VEGFR2; set-up: method as in library vendor description; conditions: ref library vendor description; cited from earlier work
[5] = system: FGFR1; set-up: method as in library vendor description; conditions: ref library vendor description; cited from earlier work
[6] = system: VEGFR1; set-up: method as in library vendor description; conditions: ref library vendor description; cited from earlier work
[7] = system: Flk1; set-up: method as in library vendor description; conditions: ref library vendor description; cited from earlier work
[8] = system: FKBP12; set-up: method as in library vendor description; conditions: ref library vendor description; read-out: IC50 mTOR inhibitor of FKBP12; cited from earlier work
[9] = system: G551D-CFTR; set-up: method as in library vendor description; conditions: potentiator; ref library vendor description; cited from earlier work
[10] = system: F508del-CFTR; set-up: method as in library vendor description; conditions: potentiator; ref library vendor description; cited from earlier work
[11] = system: CDK4/cyclin D1; set-up: method as in library vendor description; conditions: ref library vendor description; cited from earlier work
[12] = system: CDK6/cyclin D2; set-up: method as in library vendor description; conditions: ref library vendor description; cited from earlier work
[13] = in vitro; conditions: human
[14] = target: DHFR; conditions: read-out: Ki DHFR; ref library vendor description; cited from earlier work
[15] = system: SIRT1; set-up: method as in library vendor description; conditions: ref library vendor description; cited from earlier work
[16] = target: Bcl-xL; set-up: method as in library vendor description; conditions: recombinant; ref library vendor description; cited from earlier work
[17] = target: Bcl-2; set-up: method as in library vendor description; conditions: ref library vendor description; cited from earlier work
[18] = target: Mcl-1; set-up: method as in library vendor description; conditions: recombinant; ref library vendor description; cited from earlier work
[19] = system: human foreskin fibroblasts (HFFs); conditions: human, 72 h
[20] = system: Flt1; set-up: method as in library vendor description; conditions: ref library vendor description; cited from earlier work
[21] = system: Flt4; set-up: method as in library vendor description; conditions: ref library vendor description; cited from earlier work
[22] = system: c-Kit; set-up: method as in library vendor description; conditions: ref library vendor description; cited from earlier work
[23] = system: Ret; set-up: method as in library vendor description; conditions: ref library vendor description; cited from earlier work
[24] = system: AXL; set-up: method as in library vendor description; conditions: ref library vendor description; cited from earlier work
[25] = system: survivin; set-up: method as in library vendor description; conditions: ref library vendor description; cited from earlier work
[26] = system: Toxoplasma gondii RH-2F tachyzoites; conditions: preliminary screen, mean
[27] = system: wild type p110α; set-up: method as in library vendor description; conditions: ref library vendor description; cited from earlier work

In the case of `CCN(CC)C(=O)c1ccc(C2=CC3(CCNCC3)Oc3cccc(O)c32)cc1` [ADL5859 HCl], the Ki [1] is listed as 0.8 nM and the inhibition of growth at 5 µM [2] is listed as 1.1%.
In the case of `C[C@]12CC[C@H](O)CC1=CC[C@@H]1[C@H]2CC[C@]2(C)C(c3cccnc3)=CC[C@@H]12` [Abiraterone (CB-7598)], the IC50 [3] is listed as 2 nM and the inhibition of growth at 5 µM [2] is listed as 11.2%.
For `Cc1cc2c(F)c(Oc3ncnn4cc(OC[C@@H](C)OC(=O)[C@H](C)N)c(C)c34)ccc2[nH]1` [Brivanib alaninate (BMS-582664)], the IC50 [4] is given as 25 nM, the IC50 [5] is given as 148 nM and the IC50 [6] is given as 380 nM. The IC50 [7] was 89 nM and the inhibition of growth at 5 µM [2] was 7.1%.
For `CO[C@H]1C[C@@H]2CC[C@@H](C)[C@@](O)(O2)C(=O)C(=O)N2CCCC[C@H]2C(=O)O[C@H]([C@@H](C)C[C@@H]2CC[C@@H](OCCO)[C@H](OC)C2)CC(=O)[C@H](C)/C=C(\C)[C@H](O)[C@@H](OC)C(=O)[C@H](C)C[C@H](C)/C=C/C=C/C=C/1C` [Everolimus (RAD001)], the IC50 [8] is listed as 1.6 to 2.4 nM and the inhibition of growth at 5 µM [2] is listed as 14.5%.
In the case of `CC(C)(C)c1cc(C(C)(C)C)c(NC(=O)c2c[nH]c3ccccc3c2=O)cc1O` [Ivacaftor (VX-770)], the EC50 [9] is given as 100 nM, the EC50 [10] is given as 25 nM and the inhibition of growth at 5 µM [2] is given as 0.6%.
For `CC(=O)c1c(C)c2cnc(Nc3ccc(N4CCNCC4)cn3)nc2n(C2CCCC2)c1=O` [PD 0332991 (Palbociclib) HCl], the IC50 [11] is given as […], the IC50 [12] is given as 16 nM and the inhibition of growth at 5 µM [2] is given as 0.1%.
In the case of `Nc1nc(=O)c2c(CCc3ccc(C(=O)N[C@H](CCC(=O)O)C(=O)O)cc3)c[nH]c2[nH]1` [Pemetrexed (Alimta)], the viability [13] is listed as 84.6% and the Ki [14] is listed as 7.2 nM.
For `Cl.O=C(Nc1ccccc1-c1cn2c(CN3CCNCC3)csc2n1)c1cnc2ccccc2n1` [SRT1720], the “EC1.5 SIRT1 activation” value [15] is given as “SRT1720 is a selective SIRT1 activator with EC1.5 of 0.16 μM” and the inhibition of growth at 5 µM [2] is given as 18.3%.
In the case of `CC(C)c1ccccc1Cc1cc(C(=O)Nc2ccc(S(=O)(=O)c3ccccc3C(C)(C)C)cc2)c(O)c(O)c1O` [TW-37], the Ki [16] is listed as 1110 nM, the Ki [17] is listed as 290 nM and the Ki [18] is listed as 260 nM. It also gave an inhibition of growth at 5 µM [2] of 58.9%.
For `COc1cc2nccc(Oc3ccc(NC(=O)C4(C(=O)Nc5ccc(F)cc5)CC4)cc3)c2cc1OC` [XL-184 (Cabozantinib)], the “Host viability (%) mean” value [19] is listed as 50.8%, the IC50 [20] is listed as 12 nM and the IC50 [21] is listed as 6 nM. For the same compound, the IC50 [22] was […], the IC50 [23] was […] and the IC50 [24] was […]. The inhibition of growth at 5 µM [2] was 82.5%.
In the case of `COCCn1c2c([n+](Cc3cnccn3)c1C)C(=O)c1ccccc1C2=O` [YM155], the IC50 [25] is given as 0.54 nM and the inhibition of growth at 5 µM [2] is given as 15.4%.
For XL147, the “Parasite inhibition (%) mean” value [26] is given as 44.4% and the IC50 [27] is given as 40 nM.
